Test results: publication PMC2726771 (The Journal of neuroscience : the official journal of the …, 2009)
“And” between values parts separate entries of the source, which are not always exact repeats. Equal entries are not always repeated. Where two headings read alike, the source gives them in different places.

Key:
[1] = molecular target: T1, α3β2 wt nAChR (Rattus norvegicus, UniProt P04757+P12390); assay type: cell-based
[2] = molecular target: α3T115Cβ2 nAChR (Rattus norvegicus, UniProt P04757+P12390, T142C); assay type: cell-based; conditions: for potentiation (IACh+Mor/IACh), sample traces Fig. 2: 300 μM ACh + 10 μM Mor; for time constant τ of MTSET modification: response to 300 μM ACh + 10 μM Mor
Sequence of α3T115Cβ2 nAChR (P04757 26-499 T142C): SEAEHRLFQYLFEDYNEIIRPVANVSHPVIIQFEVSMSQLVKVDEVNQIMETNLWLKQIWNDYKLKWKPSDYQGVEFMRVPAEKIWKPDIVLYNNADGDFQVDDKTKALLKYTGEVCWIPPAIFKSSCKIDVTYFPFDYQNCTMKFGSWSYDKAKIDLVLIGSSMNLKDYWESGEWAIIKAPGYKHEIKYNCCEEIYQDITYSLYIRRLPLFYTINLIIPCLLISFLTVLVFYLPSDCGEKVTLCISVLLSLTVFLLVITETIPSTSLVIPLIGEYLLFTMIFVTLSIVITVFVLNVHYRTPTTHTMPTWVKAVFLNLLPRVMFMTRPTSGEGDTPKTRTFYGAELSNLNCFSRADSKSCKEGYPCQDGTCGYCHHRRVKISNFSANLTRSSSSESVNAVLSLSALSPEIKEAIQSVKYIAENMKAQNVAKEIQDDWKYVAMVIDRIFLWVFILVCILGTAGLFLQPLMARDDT
Sequence of α3T115Cβ2 nAChR (P12390 25-500): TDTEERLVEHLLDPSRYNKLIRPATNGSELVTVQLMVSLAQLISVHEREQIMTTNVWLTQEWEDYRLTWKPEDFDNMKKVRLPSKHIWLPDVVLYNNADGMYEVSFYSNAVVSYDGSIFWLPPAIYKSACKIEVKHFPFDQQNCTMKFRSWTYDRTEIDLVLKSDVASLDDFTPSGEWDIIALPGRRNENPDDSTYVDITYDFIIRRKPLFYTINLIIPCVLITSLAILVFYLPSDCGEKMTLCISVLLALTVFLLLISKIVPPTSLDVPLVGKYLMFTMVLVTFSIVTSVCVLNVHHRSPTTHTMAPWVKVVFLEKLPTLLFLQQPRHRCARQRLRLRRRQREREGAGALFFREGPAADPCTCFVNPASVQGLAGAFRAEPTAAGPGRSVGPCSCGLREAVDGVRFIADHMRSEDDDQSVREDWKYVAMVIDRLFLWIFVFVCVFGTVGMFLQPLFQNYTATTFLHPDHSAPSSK

[3] = molecular target: α3β2T150C nAChR (Rattus norvegicus, UniProt P04757+P12390, T176C); assay type: cell-based; conditions: for potentiation (IACh+Mor/IACh), sample traces Fig. 2: 300 μM ACh + 10 μM Mor; for potentiation: 10 μM Mor; for decrease of Mor potency / reduction of maximum Mor-evoked current (efficacy): after 100 μM reagent
Sequence of α3β2T150C nAChR (P04757 26-499): as the sequence (P04757 26-499 T142C) above, with C117T counted along it
Sequence of α3β2T150C nAChR (P12390 25-500 T176C): as the sequence (P12390 25-500) above, with T152C counted along it

[4] = molecular target: α3β2S148C nAChR (Rattus norvegicus, UniProt P04757+P12390, S174C); assay type: cell-based
Sequence of α3β2S148C nAChR (P04757 26-499): as the sequence (P04757 26-499 T142C) above, with C117T counted along it
Sequence of α3β2S148C nAChR (P12390 25-500 S174C): as the sequence (P12390 25-500) above, with S150C counted along it

[5] = molecular target: α3β2S192C nAChR (Rattus norvegicus, UniProt P04757+P12390, S218C); assay type: cell-based
Sequence of α3β2S192C nAChR (P04757 26-499): as the sequence (P04757 26-499 T142C) above, with C117T counted along it
Sequence of α3β2S192C nAChR (P12390 25-500 S218C): as the sequence (P12390 25-500) above, with S194C counted along it

[6] = molecular target: α3β2T193C nAChR (Rattus norvegicus, UniProt P04757+P12390, T219C); assay type: cell-based
Sequence of α3β2T193C nAChR (P04757 26-499): as the sequence (P04757 26-499 T142C) above, with C117T counted along it
Sequence of α3β2T193C nAChR (P12390 25-500 T219C): as the sequence (P12390 25-500) above, with T195C counted along it

[7] = molecular target: α3A106Cβ2 nAChR (Rattus norvegicus, UniProt P04757+P12390, A133C); assay type: cell-based
Sequence of α3A106Cβ2 nAChR (P04757 26-499 A133C): as the sequence (P04757 26-499 T142C) above, with A108C, C117T counted along it
Sequence of α3A106Cβ2 nAChR (P12390 25-500): as the sequence (P12390 25-500) above

[8] = molecular target: α3S161Cβ2 nAChR (Rattus norvegicus, UniProt P04757+P12390, S188C); assay type: cell-based
Sequence of α3S161Cβ2 nAChR (P04757 26-499 S188C): as the sequence (P04757 26-499 T142C) above, with C117T, S163C counted along it
Sequence of α3S161Cβ2 nAChR (P12390 25-500, stated change not applied): as the sequence (P12390 25-500) above

[9] = molecular target: T1, α3β2 wt nAChR; conditions: ref Wu et al., 2008, cited from earlier work
[10] = system: α3E113R; conditions: ref Laureijs and Levandoski, unpublished; cited from earlier work
[11] = 100 μM MTSET co-applied with ACh, 2 min
[12] = after 2-min 100 μM MTSET co-applied with ACh
[13] = 100 μM MTSET applied alone, 2 min
[14] = relative to response to ACh alone at [ACh] ~ EC50
[15] = 100 μM MTSET + 200 μM ACh treatment, ACh + 10 μM Mor
[16] = 100 μM MTSET + 200 μM ACh, four 30-sec

T1 sequence (P04757 26-499): as the sequence (P04757 26-499 T142C) above, with C117T counted along it
T1 sequence (P12390 25-500): as the sequence (P12390 25-500) above

SMILES: Cc1ccsc1C=CC1=NCCCN1C.O=C(O)C(O)C(O)C(=O)O [Mor, 1,4,5,6-tetrahydro-1-methyl-2-(2-[3-methyl-2-thienyl]ethenyl)pyrimidine, tartrate salt]
- Mor Potentiation % Change after MTS [1, 11]: 3 ± 3%
- Mor Potentiation IACh+Mor/IACh ([1]; [ACh] ~ EC50 ± 10 μM Mor): 1.9 ± 0.1
- potentiation (IACh+Mor/IACh), sample traces Fig. 2 ([1]; pre-MTSET, 100 μM ACh + 10 μM Mor): 2.8
- EC50 [2]: 30 µM
- potentiation IACh+Mor/I30 μM ACh ([2]; 30 μM ACh (~EC20)): 7.7
- potentiation post/pre ([2]; 50 μM Mor included with the MTSET/300 μM ACh co-application): 1.05 ± 0.07
- Mor Potentiation % Change after MTS ([2]; 100 μM MTSET co-applied with ACh (300 μM), 2 min): * -30 ± 4%
- potentiation IACh+Mor/I300 μM ACh ([2]; 300 μM ACh (~EC50)): 2.2
- Mor-evoked Response nH ([2]; Hill coefficient, pre MTSET in Fig. 8): 1.4 ± 0.1
- Mor Potentiation IACh+Mor/IACh ([2]; [ACh] ~ EC50 ± 10 μM Mor): 2.3 ± 0.3
- Mor nH post MTSET ([2]; after 100 μM MTSET alone, four 30-sec doses): 2.2 ± 1.4
- Mor Emax post MTSET ([2]; after 100 μM MTSET alone, normalized to 300 μM ACh before modification): 0.1 and 0.10 ± 0.01
- potentiation (IACh+Mor/IACh), sample traces Fig. 2 [2, 12]: 2.8
- potentiation (IACh+Mor/IACh), sample traces Fig. 2 ([2]; pre-MTSET): 4.5
- Mor-evoked Response Emax ([2]; relative to response to ACh alone at [ACh] ~ EC50 (300 μM), pre MTSET in Fig. 8): 0.3 and 0.29 ± 0.01
- Mor Potentiation % Change after MTS [3, 13]: * 52 ± 17%
- Mor-evoked Response nH ([3]; Hill coefficient): 2.3 ± 0.2
- EC50 ([3]; Mor EC50, Control, pre-treatment control, Fig. 7): 20 ± 2 µM
- EC50 ([3]; Mor EC50 after BrACh, after 100 μM BrACh, four 30-sec doses): 30 ± 5 µM
- EC50 ([3]; Mor EC50 after MTSBn, after 100 μM MTSBn, four 30-sec doses): 80 ± 20 µM
- EC50 ([3]; Mor EC50 after MTSEA, after 100 μM MTSEA, four 30-sec doses): 30 ± 1 µM
- EC50 ([3]; Mor EC50 after MTSET, after 100 μM MTSET, four 30-sec doses): 20 ± 4 µM
- EC50 ([3]; Mor-evoked Response EC50, Mor as agonist): 26 ± 1 µM
- Mor Potentiation IACh+Mor/IACh ([3]; [ACh] ~ EC50 ± 10 μM Mor): 1.6 ± 0.1
- Mor nH after BrACh ([3]; after 100 μM BrACh): 1.5 ± 0.4
- Mor Emax after BrACh ([3]; after 100 μM BrACh, normalized to pre-treatment 300 μM Mor response): 0.96 ± 0.07
- Mor nH after MTSBn ([3]; after 100 μM MTSBn): 2.7 ± 1.5
- Mor Emax after MTSBn ([3]; after 100 μM MTSBn, normalized to pre-treatment 300 μM Mor response): 0.56 ± 0.07
- Mor nH after MTSEA ([3]; after 100 μM MTSEA): 2.3 ± 0.3
- Mor Emax after MTSEA ([3]; after 100 μM MTSEA, normalized to pre-treatment 300 μM Mor response): 0.20 ± 0.01
- Mor nH after MTSET ([3]; after 100 μM MTSET): 3.4 ± 1.9
- Mor Emax after MTSET ([3]; after 100 μM MTSET, normalized to pre-treatment 300 μM Mor response): 0.24 ± 0.02
- potentiation (IACh+Mor/IACh), sample traces Fig. 2 [3, 12]: 7.5
- potentiation ([3]; measured at ~EC50 ACh, after MTSET treatment): 4.0
- potentiation ([3]; measured at ~EC50 ACh, before MTSET treatment): 1.6
- potentiation ([3]; measured at ~EC75 ACh, after MTSET treatment): 3.0
- potentiation ([3]; measured at ~EC75 ACh, before MTSET treatment): 1.5
- Mor Emax, Control ([3]; normalized to pre-treatment 300 μM Mor response): 1.00
- potentiation (IACh+Mor/IACh), sample traces Fig. 2 ([3]; pre-MTSET): 3.3
- I300 μM Mor/I300 μM ACh (pre) ([3]; pre-treatment): 0.14 ± 0.01
- Mor nH, Control ([3]; pre-treatment control, Fig. 7): 2.2 ± 0.4
- Mor-evoked Response Emax [3, 14]: 0.33 ± 0.04
- EC50 [4]: 110 ± 40 µM
- Mor Potentiation % Change after MTS [4, 13]: -7 ± 10%
- Mor-evoked Response nH ([4]; Hill coefficient): 1.4 ± 0.5
- Mor Potentiation IACh+Mor/IACh ([4]; [ACh] ~ EC50 ± 10 μM Mor): 4.9 ± 1.0
- Mor-evoked Response Emax [4, 14]: 0.36 ± 0.05
- EC50 [5]: 20 ± 6 µM
- change in Mor potentiation after MTSET alone ([5]; 100 μM MTSET alone, four 30-sec doses, 30 μM ACh): no change in potentiation outside of error
- Mor-evoked Response nH ([5]; Hill coefficient): 1.8 ± 0.7
- Mor Potentiation IACh+Mor/IACh ([5]; [ACh] ~ EC50 ± 10 μM Mor): 1.4 ± 0.1
- Mor-evoked Response Emax [5, 14]: 0.08 ± 0.01
- EC50 [6]: 20 ± 3 µM
- Mor Potentiation % Change after MTS [6, 11]: 2 ± 4%
- Mor-evoked Response nH ([6]; Hill coefficient): 1.7 ± 0.3
- Mor Potentiation IACh+Mor/IACh ([6]; [ACh] ~ EC50 ± 10 μM Mor): 1.5 ± 0.1
- Mor-evoked Response Emax [6, 14]: 0.24 ± 0.1
- EC50 [7]: 62 ± 11 µM
- change in Mor potentiation after MTSET alone ([7]; 100 μM MTSET alone, four 30-sec doses, 100 μM ACh): no change in potentiation outside of error
- Mor-evoked Response nH ([7]; Hill coefficient): 2.1 ± 0.7
- Mor Potentiation IACh+Mor/IACh ([7]; [ACh] ~ EC50 ± 10 μM Mor): 1.7 ± 0.2
- Mor-evoked Response Emax [7, 14]: 0.56 ± 0.05
- Mor Potentiation % Change after MTS [8, 13]: 3 ± 8%
- Mor Potentiation IACh+Mor/IACh ([8]; [ACh] ~ EC50 ± 10 μM Mor): 1.3 ± 0.1
- Mor-evoked Response nH ([9]; Hill coefficient): 3.1 ± 1.6
- Mor-evoked Response Emax [9, 14]: 0.2
- Mor potentiation [10]: completely abolishes Mor potentiation

SMILES: CS(=O)(=O)SCc1ccccc1 [MTSBn, benzylmethanethiosulfonate]
- potentiation post/pre ([2]; after 100 μM MTS reagent alone): 0.99 ± 0.10
- reduction of ACh-evoked currents ([2]; after 100 μM MTS reagent alone): 29 ± 9%
- reduction of ACh/Mor-evoked currents ([2]; after 100 μM MTS reagent alone): 30 ± 10%
- decrease of Mor potency ([3]; four 30-sec doses): 4 fold
- reduction of maximum Mor-evoked current (efficacy) ([3]; four 30-sec doses): 45%

SMILES: CC(=O)OCC[N+](C)(C)C [ACh]
- ACh Response nH ([1]; Hill coefficient): 0.82 ± 0.06
- ACh Response nH ([2]; Hill coefficient): 0.96 ± 0.09
- ACh nH, +Mor data set, pre-treatment ([3]; ACh + 10 μM Mor): 1.13 ± 0.24
- ACh nH, +Mor data set, post-treatment ([3]; ACh + 10 μM Mor, after 100 μM MTSET + 200 μM ACh): 0.98 ± 0.02
- ACh Emax, +Mor data set, pre-treatment ([3]; ACh + 10 μM Mor, normalized to ACh response at 1000 μM): 1.33 ± 0.05
- ACh Response nH ([3]; Hill coefficient, pre-treatment in Fig. 4): 0.84 ± 0.06
- ACh nH post-treatment ([3]; after 100 μM MTSET + 200 μM ACh): 0.79 ± 0.11
- ACh Emax post-treatment ([3]; after 100 μM MTSET + 200 μM ACh, normalized to ACh response at 1000 μM): 0.26 ± 0.01
- ACh Emax pre-treatment ([3]; normalized to ACh response at 1000 μM): 1.00
- ACh Response nH ([4]; Hill coefficient): 0.79 ± 0.08
- ACh Response nH ([5]; Hill coefficient): 0.57 ± 0.05
- ACh Response nH ([6]; Hill coefficient): 0.74 ± 0.07
- ACh Response nH ([7]; Hill coefficient): 0.64 ± 0.04
- ACh Response nH ([8]; Hill coefficient): 0.77 ± 0.07

SMILES: C[N+](C)(C)CCOC(=O)CBr [BrACh]
- reduction of maximum Mor-evoked current (efficacy) ([3]; four 30-sec doses): very little effect

SMILES: C[N+](C)(C)CCSS(C)(=O)=O.[Br-] [MTSET, [2-(trimethyl-ammonium)ethyl]methanesthiosulfonate bromide]
- time constant τ of MTSET modification ([2]; 30 μM MTSET alone): 170 s and 167 ± 22 s
- time constant τ of MTSET modification ([2]; 30 μM MTSET co-applied with 100 μM Mor): 720 s and 719 ± 137 s
- time constant τ of MTSET modification ([2]; 30 μM MTSET co-applied with 300 μM ACh): 34 s and 34 ± 12 s
- reduction of ACh-evoked currents ([2]; after 100 μM MTS reagent alone): unchanged
- reduction of ACh/Mor-evoked currents ([2]; after 100 μM MTS reagent alone): 32 ± 9%
- reduction of degree of potentiation ([2]; after 100 μM MTS reagent alone): 31 ± 8%
- decrease of Mor efficacy ([2]; after 100 μM MTSET alone): 66%
- decrease in efficacy of ACh/Mor concentration-response curve [3, 15]: 50%
- decrease in potency of ACh/Mor concentration-response curve [3, 15]: 3 fold
- decrease in ACh efficacy (maximum response at high ACh) [3, 16]: 75%
- decrease in ACh potency after MTSET/agonist co-application [3, 16]: 4.5 fold
- decrease of Mor potency ([3]; four 30-sec doses): without changing the potency
- reduction of maximum Mor-evoked current (efficacy) ([3]; four 30-sec doses): 75 - 80%
